Reference: US20040162428A1, “6-(2,6-difluorophenyl)-triazolopyrimidines as fungicides” (priority 2001, published 2004)

Test system: Botrytis cinerea
Experiment: Comparison trial: control of gray mould (Botrytis cinerea) on fruit slices of green pepper
Type: in vivo
Details: green pepper fruit slices sprayed with 500 ppm, inoculated after 2 hours, incubated four days at 18-20° C.; untreated infected to 100%
From the text: The active compounds, separately or together, were formulated as a 10% emulsion in a mixture of 70% by weight of cyclohexanone, 20% by weight of Nekanil® LN (Lutensol® AP6, wetting agent having emulsifying and dispersant action based on ethoxylated alkylphenols) and 10% by weight of Wettol® EM (nonionic emulsifier based on ethoxylated castor oil) and diluted with water to the desired concentration. Comparison trial—Control of gray mould (Botrytis cinerea) on fruit slices of green pepper Fruit slices of green pepper were sprayed to run-off with an aqueous suspension, containing the concentration of active ingredient or their mixture mentioned in the table below, prepared from a stock solution containing 10% of the active ingredient; 85% cyclohexanone and 5% emulsifier. After 2 hours the sprayed-on layer had dried, the disks were inoculated with a spore suspension of Botrytis cinerea containing 1,7×10^6 spores per ml in 2 wt. % aqueous biomalt solution. The infected fruit slices were then incubated in chambers with high humidity for four days at 18-20° C. The fruit slice area under fungal attack was then assessed visually in percent.

Row | Compound | infection (fruit slice area under fungal attack in percent) [%]
1 | CC(Nc1c(-c2c(F)cccc2F)c(Cl)nc2ncnn12)C(F)(F)F (centres unmarked) [B] | 20
2 | Fc1cccc(F)c1-c1c(Cl)nc2ncnn2c1NCC(F)(F)F [A] | 100
